According to patent publication US11266634B2, “Methods for treating melanoma with human therapeutic agents” (Ankh Life Sciences Limited, priority 2014, dated 2022):

test system: human ovarian cancer cells (A1847); test: Ovarian cancer spheroid cell death test; format: cell-based; details: 24 hour exposure to increasing doses; spheroids
Description: (§1) The respective cells were individually cultured in a growth medium prepared using RPMI-1640 medium containing 11.1 mM D-glucose with 10% fetal bovine serum, 10 mM HEPES, 2 mM L-glutamine, 1 mM sodium pyruvate, 0.05 mM 2-mercaptoethanol, and Antibiotic-Antimycotic. These cells were maintained in T75 tissue culture flasks in a humidified incubator at 37° C. and 5% CO2. The media were changed on a third day after cell plating, and the cells were passaged on day 5 by trypsinization.
(§2) Custom-made micromolds with 100 μm diameter wells were loaded with the cells (U.S. Pat. No. 8,735,154, incorporated by reference herein). The media were changed every day by partial replacement. Cell aggregates were allowed to form in the micromolds for 72 hours and then were transferred to a 100 mm non-treated tissue culture dishes for 3 additional days. The spheroids were passed through 70 μm and 100 μm cell strainers (#3431751 and #43152, Corning, Tewksbury, Mass.) and maintained in HEPES Balanced Salt Solution comprised of: 20 mM HEPES, 114 mMNaCl, 4.7 mM KCl, 1.2 mM KH2PO4, 1.16 mM MgSO4, 2.5 mM CaCl2, 25.5 mM NaHCO3 and 0.2% bovine serum albumin (fatty acid free), pH 7.2.
(§3) The cells were treated and tested as set forth in Example 1.

Compound | cell death (number of live cells)
COc1cccc(C=O)c1O [O -vanillin] | demonstrated anticancer effects
COc1ccc2c3c([nH]c2c1)C(C)=NCC3 [harmaline] | demonstrated anticancer effects
CC1=NCCc2c1[nH]c1cc(O)ccc21.Cl [harmalol hydrochloride] | demonstrated anticancer effects
Cc1nccc2c1[nH]c1cc(O)ccc12.Cl [harmole hydrochloride] | demonstrated anticancer effects
COc1ccc(C(=O)O)cc1O [isovanillic acid] | demonstrated anticancer effects
COc1ccc(CO)cc1O [isovanillyl alcohol] | demonstrated anticancer effects
COc1ccc2c3c([nH]c2c1)[C@@H](C)NCC3 [tetrahydro-harmine] | demonstrated anticancer effects
COc1cc(C=O)ccc1O [vanillin] | demonstrated anticancer effects

test system: human lung cancer cells (H358); test: Lung cancer spheroid cell death test; format: cell-based; details: 24 hour exposure to increasing doses; spheroids
Description: as §1, §2
The lymphomas treatment methods used were identical to those described in Example 2 relative to the pediatric leukemia cells, whereas the lung cancer treatment method was the same as described in Example 1.

Compound | cell death (number of live cells)
COc1cccc(C=O)c1O [O -vanillin] | demonstrated anticancer effects
COc1ccc2c3c([nH]c2c1)C(C)=NCC3 [harmaline] | demonstrated anticancer effects
CC1=NCCc2c1[nH]c1cc(O)ccc21.Cl [harmalol hydrochloride] | demonstrated anticancer effects
Cc1nccc2c1[nH]c1cc(O)ccc12.Cl [harmole hydrochloride] | demonstrated anticancer effects
COc1ccc(C(=O)O)cc1O [isovanillic acid] | demonstrated anticancer effects
COc1ccc(CO)cc1O [isovanillyl alcohol] | demonstrated anticancer effects
COc1ccc2c3c([nH]c2c1)[C@@H](C)NCC3 [tetrahydro-harmine] | demonstrated anticancer effects
COc1cc(C=O)ccc1O [vanillin] | demonstrated anticancer effects

test system: human prostate cancer cells (22rv1); test: Prostate cancer spheroid cell death test; format: cell-based; details: 24 hour exposure to increasing doses; spheroids
Description: as §1, §2, §3

Compound | cell death (number of live cells)
COc1cccc(C=O)c1O [O -vanillin] | demonstrated anticancer effects
COc1ccc2c3c([nH]c2c1)C(C)=NCC3 [harmaline] | demonstrated anticancer effects
CC1=NCCc2c1[nH]c1cc(O)ccc21.Cl [harmalol hydrochloride] | demonstrated anticancer effects
Cc1nccc2c1[nH]c1cc(O)ccc12.Cl [harmole hydrochloride] | demonstrated anticancer effects
COc1ccc(C(=O)O)cc1O [isovanillic acid] | demonstrated anticancer effects
COc1ccc(CO)cc1O [isovanillyl alcohol] | demonstrated anticancer effects
COc1ccc2c3c([nH]c2c1)[C@@H](C)NCC3 [tetrahydro-harmine] | demonstrated anticancer effects
COc1cc(C=O)ccc1O [vanillin] | demonstrated anticancer effects

test system: ovarian cancer cells; test: not given; details: low doses of doxorubicin alone (up to 0.158, unit not given)
Description: In this test, the synergism of GZ17-6.02 with doxorubicin (a common chemotherapy drug) was tested on ovarian cancer cells. In this test, increasing doses of doxorubicin were administered to ovarian cancer spheroids and cell deaths were measured, as described in Example 1. The protocol involved testing doxorubicin alone at various dosages (FIG. 8, doxorubicin alone—closed circles), with comparative tests using the various dosages of doxorubicin in combination with either 0.2 mg/mL (FIG. 8 open circles) or 0.4 mg/mL (FIG. 8 closed triangles) GZ17-6.02. Additionally, the induced cell death results from use of 0.2 mg/mL GZ17-6.02 alone (FIG. 8, line A) and 0.4 mg/mL GZ17-6.02 alone (FIG. 8, line B) were determined.

Compound | cell death, doxorubicin alone
COc1cccc2c1C(=O)c1c(O)c3c(c(O)c1C2=O)C[C@@](O)(C(=O)CO)C[C@@H]3O[C@H]1C[C@H](N)[C@H](O)[C@H](C)O1 [doxorubicin] | ineffective
